# Like-named read-outs stand apart in the source and are kept apart here.
# Experiments:
# [1] = system: Alpha7; test: PDSP primary binding Alpha7; conditions: primary binding, 10,000 nM; last figure of the line = mean of the 4 before it
# Experimental: (§1) To determine if any off-target receptor-binding effects are present, all the novel ligands were sent to the National Institute of Mental Health (NIMH), Psychoactive Drug Screening Program (PDSP). The ligands were screened over a panel of 47 receptors, ion channels, and transporters to determine any other possible interactions with […]. The hERG-binding was also determined. […] No binding of the test compounds to calcium channels was observed. […] It is necessary to screen the compounds for hERG-binding during the early process of drug discovery. The unintentional binding of many drugs to hERG can cause blockade of hERG K+ channels in the heart, which can cause many side effects including cardiac arrhythmias and sudden death. […] All of the α5 imidazodiazepines were tested for hERG-binding.
# (§2) The NIMH PDSP assay protocol book [https://kidbdev.med.unc.edu/databases/PDSP%20Protocols%20II%202013-03-28.pdf accessed on 23 April 2023]. describes the protocols for primary and secondary radio-ligand binding assays. These assays were carried out in a final volume of 125 µL per well in the appropriate binding buffer.
# (§3) The binding of a ligand to a receptor, ion channel, or transporter was determined in the […] of 10 µM of the appropriate reference compound. […] Plates were incubated in the dark for 90 min at rt, and the reactions were stopped by vacuum filtration onto 0.3% polyethyleneimine (PEI) soaked 96-well filter mats using a 96-well Filtermateharvester. This was followed by three washes with cold PBS buffer. Radioactivity was then counted on a Microbeta counter. Nonlinear regression was used to analyze the data with N = 6 replicates.
# [2] = target: T1, V1A (Homo sapiens, UniProt P37288); test: PDSP primary binding V1A; conditions: primary binding, 10,000 nM; last figure of the line = mean of the 4 before it; read-out: V1A, PDSP raw data, mean
# T1 construct: purchased NIMH Psychoactive Drug Screening Program (PDSP)
# Experimental: as §1, §2, §3
# [3] = target: BZP rat brain site; test: PDSP binding at BZP rat brain site; conditions: rat brain; for Ki: N = 2, read-out: Binding Affinity BZR Secondary Screening Ki; for Binding Affinity BZR % Inhibition (Primary): at 10,000 nM, N = 5
# Experimental: The BZR binding affinity of the test compounds was also measured using rat brain BzR. […] The efficacy of imidazodiazepines on the benzodiazepine receptor depends on various factors, including the specific subtype of the receptor they bind to, their chemical structure, and the dose.
# as §2, §3
# [4] = target: T2, Alpha3Beta4 (Rattus norvegicus, UniProt P04757+P12392); test: PDSP primary binding Alpha3Beta4; conditions: primary binding, 10,000 nM; last figure of the line = mean of the 4 before it; read-out: Alpha3Beta4, PDSP raw data, mean
# T2 construct: purchased NIMH Psychoactive Drug Screening Program (PDSP)
# Experimental: as §1, §2, §3
# [5] = target: T3, HCA2 (Homo sapiens, UniProt Q8TDS4); test: PDSP primary binding HCA2; conditions: primary binding, 10,000 nM; last figure of the line = mean of the 4 before it; read-out: HCA2, PDSP raw data, mean
# T3 construct: purchased NIMH Psychoactive Drug Screening Program (PDSP)
# Experimental: as §1, §2, §3
# [6] = target: T4, DOR (Homo sapiens, UniProt P41143); test: PDSP radioligand binding at DOR
# T4 construct: purchased NIMH Psychoactive Drug Screening Program (PDSP)
# Text: Opioid receptors are a family of inhibitory G-coupled protein receptors where opioids act as the ligand. The kappa opioid receptors (KOR), µ and δ opioid receptors (MOR and DOR), and nociception opioid receptor (NOP) fall under the family of opioids receptors. It has been reported that oxadiazole imidazodiazepines can mediate analgesic and anti-inflammatory properties mediated also by the κ opioid receptor (KOR). The binding at KOR is usually silent. The affinities of the test compounds for KOR, DOR, and MOR were determined using radioligand binding assays at a screening concentration of 10,000 nM in collaboration with the National Institute of Mental Health’s Psychoactive Drug Screening Program (PDSP), as mentioned before. Concentration-dependent experiments were conducted to determine Ki values for the compounds that exceeded more than 50% radioligand displacement in primary binding assays.
# as §2, §3
# [7] = system: Ca channel human; test: PDSP primary binding Ca channel; conditions: primary binding, 10,000 nM; last figure of the line = mean of the 4 before it
# Experimental: as §1, §2, §3
# [8] = target: T5, M3D (Homo sapiens, UniProt P20309, A239G/Y149C); test: PDSP primary binding M3D; conditions: primary binding, 10,000 nM; last figure of the line = mean of the 4 before it; read-out: M3D, PDSP raw data, mean
# T5 construct: purchased NIMH Psychoactive Drug Screening Program (PDSP)
# Experimental: as §1, §2, §3
# [9] = target: T6, 5-HT2B (Homo sapiens, UniProt P41595); test: PDSP primary binding 5-HT2B; conditions: 1.5 h; primary binding, 10,000 nM; last figure of the line = mean of the 4 before it; read-out: 5-HT2B, PDSP raw data, mean
# T6 construct: purchased NIMH Psychoactive Drug Screening Program (PDSP)
# Experimental: as §1, §2, §3
# [10] = target: T7, Beta2 (Homo sapiens, UniProt P07550); test: PDSP primary binding Beta2; conditions: 1.5 h; primary binding, 10,000 nM; last figure of the line = mean of the 4 before it; read-out: Beta2, PDSP raw data, mean
# T7 construct: purchased NIMH Psychoactive Drug Screening Program (PDSP)
# Experimental: as §1, §2, §3
# [11] = target: T8, M3 (Homo sapiens, UniProt P20309); test: PDSP primary binding M3; conditions: primary binding, 10,000 nM; last figure of the line = mean of the 4 before it; read-out: M3, PDSP raw data, mean
# T8 construct: purchased NIMH Psychoactive Drug Screening Program (PDSP)
# Experimental: as §1, §2, §3
# [12] = target: T9, A1 (Homo sapiens, UniProt P30542); test: PDSP primary binding A1; conditions: 1.5 h; primary binding, 10,000 nM; last figure of the line = mean of the 4 before it; read-out: A1, PDSP raw data, mean
# T9 construct: purchased NIMH Psychoactive Drug Screening Program (PDSP)
# T9 sequence (P30542 1-326): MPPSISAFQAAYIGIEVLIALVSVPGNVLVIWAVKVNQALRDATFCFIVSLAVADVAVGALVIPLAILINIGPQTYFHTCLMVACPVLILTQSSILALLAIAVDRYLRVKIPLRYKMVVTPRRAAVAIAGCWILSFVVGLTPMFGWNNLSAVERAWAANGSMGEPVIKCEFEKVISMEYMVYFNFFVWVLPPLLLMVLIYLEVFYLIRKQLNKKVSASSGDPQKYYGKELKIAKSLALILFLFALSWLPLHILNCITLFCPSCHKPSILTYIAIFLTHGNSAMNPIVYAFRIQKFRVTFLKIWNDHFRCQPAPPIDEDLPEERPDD
# Experimental: as §1, §2, §3
# [13] = target: T10, H4 (Homo sapiens, UniProt Q9H3N8); test: PDSP primary binding H4; conditions: primary binding, 10,000 nM; last figure of the line = mean of the 4 before it; read-out: H4, PDSP raw data, mean
# T10 construct: purchased NIMH Psychoactive Drug Screening Program (PDSP)
# Experimental: as §1, §2, §3
# [14] = at 10,000 nM, N = 5, [3H]-DADLE 2.69 nM, read-out: Primary Binding %DOR
# [15] = primary binding, 10,000 nM, last figure of the line = mean of the 4 before it, read-out: DOR, PDSP raw data, mean
# T2 sequence (P04757 26-499): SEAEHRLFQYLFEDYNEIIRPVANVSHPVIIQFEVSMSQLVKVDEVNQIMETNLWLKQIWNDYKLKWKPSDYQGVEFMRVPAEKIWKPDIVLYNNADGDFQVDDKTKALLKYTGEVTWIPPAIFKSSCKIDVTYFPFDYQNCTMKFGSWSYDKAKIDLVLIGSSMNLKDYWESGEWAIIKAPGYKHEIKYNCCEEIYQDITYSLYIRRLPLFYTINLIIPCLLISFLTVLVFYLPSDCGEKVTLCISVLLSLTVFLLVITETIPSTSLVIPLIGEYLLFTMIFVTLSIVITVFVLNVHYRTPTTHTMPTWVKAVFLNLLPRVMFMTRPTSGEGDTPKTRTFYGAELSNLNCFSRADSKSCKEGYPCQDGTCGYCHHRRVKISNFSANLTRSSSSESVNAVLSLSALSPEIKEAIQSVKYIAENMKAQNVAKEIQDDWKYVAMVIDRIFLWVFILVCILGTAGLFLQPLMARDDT
# T2 sequence (P12392 21-495): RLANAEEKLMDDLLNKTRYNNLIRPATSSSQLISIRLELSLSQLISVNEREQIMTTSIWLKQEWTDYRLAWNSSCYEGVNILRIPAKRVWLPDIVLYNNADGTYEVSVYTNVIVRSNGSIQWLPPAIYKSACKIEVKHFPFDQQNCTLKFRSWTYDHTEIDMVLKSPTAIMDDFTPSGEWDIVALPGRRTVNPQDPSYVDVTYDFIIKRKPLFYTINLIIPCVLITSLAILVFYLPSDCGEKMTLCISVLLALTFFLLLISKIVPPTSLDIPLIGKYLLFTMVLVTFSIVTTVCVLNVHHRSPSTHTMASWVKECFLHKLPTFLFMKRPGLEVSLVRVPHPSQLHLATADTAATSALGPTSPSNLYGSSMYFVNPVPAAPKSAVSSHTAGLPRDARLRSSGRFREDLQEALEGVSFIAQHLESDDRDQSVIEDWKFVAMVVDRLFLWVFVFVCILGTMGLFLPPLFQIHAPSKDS
# T1 sequence (P37288 whole entry): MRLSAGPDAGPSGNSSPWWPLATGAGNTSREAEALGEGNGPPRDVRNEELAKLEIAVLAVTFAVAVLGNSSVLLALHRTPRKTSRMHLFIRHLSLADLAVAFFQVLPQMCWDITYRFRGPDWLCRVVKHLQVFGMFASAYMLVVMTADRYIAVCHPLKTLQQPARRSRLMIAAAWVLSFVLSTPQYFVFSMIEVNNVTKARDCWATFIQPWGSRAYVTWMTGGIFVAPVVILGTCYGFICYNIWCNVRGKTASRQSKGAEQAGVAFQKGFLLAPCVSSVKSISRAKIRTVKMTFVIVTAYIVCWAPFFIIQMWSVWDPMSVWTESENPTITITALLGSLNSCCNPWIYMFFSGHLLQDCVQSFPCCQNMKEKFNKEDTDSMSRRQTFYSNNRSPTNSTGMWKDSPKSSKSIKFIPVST
# T10 sequence (Q9H3N8 whole entry): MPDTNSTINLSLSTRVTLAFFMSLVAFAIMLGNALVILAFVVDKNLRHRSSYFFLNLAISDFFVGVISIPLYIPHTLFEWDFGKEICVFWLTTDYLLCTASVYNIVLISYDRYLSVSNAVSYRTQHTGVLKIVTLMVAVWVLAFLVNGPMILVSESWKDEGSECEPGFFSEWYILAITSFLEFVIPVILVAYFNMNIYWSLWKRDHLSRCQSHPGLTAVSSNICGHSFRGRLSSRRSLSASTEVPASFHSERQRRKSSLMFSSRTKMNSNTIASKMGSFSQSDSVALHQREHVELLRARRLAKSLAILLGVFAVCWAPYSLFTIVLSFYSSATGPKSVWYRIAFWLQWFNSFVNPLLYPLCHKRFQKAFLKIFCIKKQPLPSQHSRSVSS
# T3 sequence (Q8TDS4 whole entry): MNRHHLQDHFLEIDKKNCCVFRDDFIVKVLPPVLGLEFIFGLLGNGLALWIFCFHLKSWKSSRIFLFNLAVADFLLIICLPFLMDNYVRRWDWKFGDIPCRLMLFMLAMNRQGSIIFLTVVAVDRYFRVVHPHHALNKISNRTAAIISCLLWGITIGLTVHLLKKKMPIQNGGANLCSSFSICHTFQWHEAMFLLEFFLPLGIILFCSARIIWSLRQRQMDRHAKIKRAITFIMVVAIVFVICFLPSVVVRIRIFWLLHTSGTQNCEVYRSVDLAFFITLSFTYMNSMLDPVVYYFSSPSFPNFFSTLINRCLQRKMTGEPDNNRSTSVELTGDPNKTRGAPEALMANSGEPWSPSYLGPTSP
# T4 sequence (P41143 whole entry): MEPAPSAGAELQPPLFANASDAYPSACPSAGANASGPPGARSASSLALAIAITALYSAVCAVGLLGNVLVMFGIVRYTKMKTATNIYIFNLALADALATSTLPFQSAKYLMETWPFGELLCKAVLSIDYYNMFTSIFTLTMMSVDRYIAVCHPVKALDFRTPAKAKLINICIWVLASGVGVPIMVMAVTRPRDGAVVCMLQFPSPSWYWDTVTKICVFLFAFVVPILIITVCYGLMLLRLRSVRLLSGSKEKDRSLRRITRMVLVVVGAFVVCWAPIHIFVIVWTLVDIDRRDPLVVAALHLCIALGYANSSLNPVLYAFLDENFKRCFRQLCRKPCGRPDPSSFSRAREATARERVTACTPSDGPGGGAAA
# T8 sequence (P20309 whole entry): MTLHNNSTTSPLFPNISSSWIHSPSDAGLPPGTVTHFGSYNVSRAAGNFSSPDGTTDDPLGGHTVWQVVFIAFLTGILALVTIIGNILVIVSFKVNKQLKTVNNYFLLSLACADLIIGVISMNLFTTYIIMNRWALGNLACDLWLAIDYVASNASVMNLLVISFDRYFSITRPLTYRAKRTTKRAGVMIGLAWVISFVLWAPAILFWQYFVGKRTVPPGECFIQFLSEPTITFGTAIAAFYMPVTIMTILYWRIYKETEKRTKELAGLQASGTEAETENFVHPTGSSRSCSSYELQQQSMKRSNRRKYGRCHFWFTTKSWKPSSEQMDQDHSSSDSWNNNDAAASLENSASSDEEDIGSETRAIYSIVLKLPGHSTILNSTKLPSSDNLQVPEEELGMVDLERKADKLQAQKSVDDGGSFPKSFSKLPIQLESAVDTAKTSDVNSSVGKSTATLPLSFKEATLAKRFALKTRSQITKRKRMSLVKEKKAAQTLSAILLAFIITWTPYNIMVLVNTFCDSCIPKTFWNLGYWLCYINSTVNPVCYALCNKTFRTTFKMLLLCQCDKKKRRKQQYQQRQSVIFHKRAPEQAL
# T5 sequence (P20309 whole entry Y149C/A239G): as the sequence (P20309 whole entry) above, with Y149C, A239G counted along it
# T6 sequence (P41595 whole entry): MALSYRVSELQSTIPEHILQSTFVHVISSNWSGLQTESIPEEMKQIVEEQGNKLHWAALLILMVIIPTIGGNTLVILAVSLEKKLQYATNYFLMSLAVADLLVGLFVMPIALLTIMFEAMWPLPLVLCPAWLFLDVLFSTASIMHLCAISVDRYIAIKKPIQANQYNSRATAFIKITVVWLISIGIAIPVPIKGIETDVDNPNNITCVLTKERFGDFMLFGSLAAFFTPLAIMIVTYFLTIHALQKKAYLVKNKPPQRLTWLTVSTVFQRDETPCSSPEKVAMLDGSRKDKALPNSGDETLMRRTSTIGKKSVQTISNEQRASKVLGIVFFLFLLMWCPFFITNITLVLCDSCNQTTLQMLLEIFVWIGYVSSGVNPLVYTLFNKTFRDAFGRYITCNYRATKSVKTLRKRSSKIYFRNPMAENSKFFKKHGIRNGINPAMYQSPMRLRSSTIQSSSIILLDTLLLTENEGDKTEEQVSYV
# T7 sequence (P07550 whole entry): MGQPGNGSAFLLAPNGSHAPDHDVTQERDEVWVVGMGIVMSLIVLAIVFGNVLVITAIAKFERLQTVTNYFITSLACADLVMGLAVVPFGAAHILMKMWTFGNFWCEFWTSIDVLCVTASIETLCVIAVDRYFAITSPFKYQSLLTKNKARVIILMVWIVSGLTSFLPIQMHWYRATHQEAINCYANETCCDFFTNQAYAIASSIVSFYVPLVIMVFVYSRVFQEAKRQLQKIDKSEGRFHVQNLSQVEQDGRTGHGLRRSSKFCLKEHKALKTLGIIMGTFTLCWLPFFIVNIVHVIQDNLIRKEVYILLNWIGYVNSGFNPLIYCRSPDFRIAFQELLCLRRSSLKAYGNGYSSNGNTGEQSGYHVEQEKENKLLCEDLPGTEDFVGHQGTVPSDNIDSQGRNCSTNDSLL
Structure (SMILES),"Alpha7, PDSP raw data, mean [1] [%]",inhibition at 10 µM [2] [%],Ki [3] [nM],Binding Affinity BZR % Inhibition (Primary) [3] [%],inhibition at 10 µM [4] [%],inhibition at 10 µM [5] [%],"inhibition at 10 µM [6, 14] [%]","inhibition at 10 µM [6, 15] [%]","Ca channel human, PDSP raw data, mean [7] [%]",inhibition at 10 µM [8] [%],inhibition at 10 µM [9] [%],inhibition at 10 µM [10] [%],inhibition at 10 µM [11] [%],inhibition at 10 µM [12] [%],inhibition at 10 µM [13] [%]
"C[C@H]1N=C(c2ccccc2F)c2cc(-c3ccccc3)ccc2-n2cnc(C(=O)N(C)C)c21 [Compound 5, (R)-6-(2′-Fluorophenyl)-N,N,4-trimethyl-8-phenyl-4H-benzo[f]imidazo[1,5-a][1,4]diazepine-3-carboxamide]",-18.33,15.6,123 ± 22.3,94.79 ± 1.08,-0.77,-9.82,43 ± 7.83,43,39.05,4.84,26.5,-0.87,3.03,25.9,0.9
"C#Cc1ccc2c(c1)C(c1ccccc1Cl)=N[C@H](C)c1c(C(=O)NC)ncn1-2 [Compound 21, (R)-6-(2′-Chlorophenyl)-8-ethynyl-N,4-dimethyl-4H-benzo[f]imidazo[1,5-a][1,4]diazepine-3-carboxamide]",-10.85,35.1,77.7 ± 2.93,94.96 ± 2.06,11.3,35.7,28.3 ± 4.67,28.3,9.85,0.48,-5.07,-0.28,-12.9,-13.3,-4.41
"C#Cc1ccc2c(c1)C(c1ccccn1)=N[C@@H](C)c1c(C(=O)NC)ncn1-2 [Compound 23, (S)-8-Ethynyl-N,4-dimethyl-6-(pyridin-2′-yl)-4H-benzo[f]imidazo[1,5-a][1,4]diazepine-3-carboxamide]",-5.28,25.4,1300 ± 394,52.97 ± 6.26,1.99,15.2,14.9 ± 8.84,14.9,14.91,9.08,-3.33,-5.89,0.11,10.4,-16.8
C#Cc1ccc2c(c1)C(c1ccccc1Cl)=N[C@H](C)c1c(C(=O)N(C)CC)ncn1-2 [Compound 29],-2.05,8.93,394 ± 40.2,87.49 ± 2.75,0.02,-26.3,39.5 ± 3.21,39.5,22.67,6.78,30,-7.07,-8.9,-6.38,-21.5

# From PMC10303271, “Synthesis and Receptor Binding Studies of α5 GABAAR Selective Novel Imidazodiazepines Targeted for Psychiatric and Cognitive Disorders” (Molecules, 2023)
